The test system of the assay is gastric cancer (Asian). Put plainly: 3D clonogenic assay, Example 2, gastric cancer (Asian). The note with it: n=3 models. The class given is cell-based. The procedure:
The present study investigated plinabulin for anticancer activity ex vivo in 68 out of 71 originally planned patient-derived xenograft (PDX) models representing major cancer types. Experiments were performed using a 3D clonogenic assay in a 96-well format with colony count based on image analysis as a read-out. By using this assay, the investigational compound was assessed for the ability to inhibit anchorage independent growth and ex vivo colony formation of tumor cells in semi-solid medium.
A master stock solution of plinabulin was prepared by dissolving the compound in DMSO at a concentration of 9.9 mM. Working stock solutions were prepared by diluting the master stock solution with DMSO to a concentration of 0.99 mM (330-fold the highest test concentration). Small aliquots of the master and working stock were stored at −20° C. […]
Plinabulin was investigated in 68 PDX models representing a number of cancer types. […] The percentage of viable cells was determined in a Neubauer-hemocytometer using trypan blue exclusion. […]
The clonogenic assay was carried out in a 96 well plate format using ultra low attachment plates. […] Cultures were incubated at 37° C. and 7.5% CO2 in a humidified atmosphere 13 days in total and monitored closely for colony growth using an inverted microscope. […]

Results on 1 molecule are retold here after patent US20240408082A1, “METHODS FOR TREATING CANCERS AND TUMORS” (BEYONDSPRING PHARMACEUTICALS, INC., priority 2021, published 2024).

Molecules are shown by their SMILES. pIC50: −log10 of the molar value.

Consider `CC(C)(C)c1[nH]cnc1/C=c1\[nH]c(=O)/c(=C/c2ccccc2)[nH]c1=O` [plinabulin, (3Z,6Z)-3-Benzylidene-6-{[5-(2-methyl-2-propanyl)-1H-imidazol-4-yl]methylene}-2,5-piperazinedione], for which the “geom. mean abs. IC70” value amounted to 319 nM. For the same molecule, where the note is “read-out: geom. mean abs. IC50”, the pIC50 is 6.78.
